Laboratory results as given in article doi:10.1101/2024.08.13.607785v1 (biorxiv, 2024).

Columns and labels:
Parameters in all cases: species or system mixed lysate of K562, MV4-11, THP-1, NCI-H1155
[1] = target: T1, Tyrosine-protein kinase Tec ; TEC ; P42680 (Homo sapiens, UniProt P42680); settings: binder
T1 sequence (P42680 1-631): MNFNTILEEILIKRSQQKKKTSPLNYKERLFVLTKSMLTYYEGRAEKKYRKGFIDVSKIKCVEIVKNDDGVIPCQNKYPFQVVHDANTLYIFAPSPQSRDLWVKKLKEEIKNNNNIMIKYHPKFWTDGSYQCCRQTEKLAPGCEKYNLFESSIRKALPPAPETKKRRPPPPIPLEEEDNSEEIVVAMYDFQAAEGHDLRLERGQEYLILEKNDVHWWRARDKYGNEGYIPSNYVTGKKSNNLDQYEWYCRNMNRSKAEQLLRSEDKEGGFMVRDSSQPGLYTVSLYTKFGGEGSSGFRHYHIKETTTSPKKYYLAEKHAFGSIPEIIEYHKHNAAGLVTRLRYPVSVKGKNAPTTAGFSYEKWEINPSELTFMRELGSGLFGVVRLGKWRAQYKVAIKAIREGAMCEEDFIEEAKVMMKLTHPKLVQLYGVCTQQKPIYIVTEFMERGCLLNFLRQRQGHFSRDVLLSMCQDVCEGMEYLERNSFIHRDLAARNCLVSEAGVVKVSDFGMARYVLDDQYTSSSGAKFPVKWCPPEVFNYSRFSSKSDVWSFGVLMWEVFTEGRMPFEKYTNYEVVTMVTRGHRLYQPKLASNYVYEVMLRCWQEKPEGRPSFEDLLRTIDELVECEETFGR

[2] = target: T2, Ephrin type-B receptor 2 ; EPHB2 ; P29323 (Homo sapiens, UniProt P29323); settings: DDA-MS residual binding; binder
T2 sequence (P29323 1-1055): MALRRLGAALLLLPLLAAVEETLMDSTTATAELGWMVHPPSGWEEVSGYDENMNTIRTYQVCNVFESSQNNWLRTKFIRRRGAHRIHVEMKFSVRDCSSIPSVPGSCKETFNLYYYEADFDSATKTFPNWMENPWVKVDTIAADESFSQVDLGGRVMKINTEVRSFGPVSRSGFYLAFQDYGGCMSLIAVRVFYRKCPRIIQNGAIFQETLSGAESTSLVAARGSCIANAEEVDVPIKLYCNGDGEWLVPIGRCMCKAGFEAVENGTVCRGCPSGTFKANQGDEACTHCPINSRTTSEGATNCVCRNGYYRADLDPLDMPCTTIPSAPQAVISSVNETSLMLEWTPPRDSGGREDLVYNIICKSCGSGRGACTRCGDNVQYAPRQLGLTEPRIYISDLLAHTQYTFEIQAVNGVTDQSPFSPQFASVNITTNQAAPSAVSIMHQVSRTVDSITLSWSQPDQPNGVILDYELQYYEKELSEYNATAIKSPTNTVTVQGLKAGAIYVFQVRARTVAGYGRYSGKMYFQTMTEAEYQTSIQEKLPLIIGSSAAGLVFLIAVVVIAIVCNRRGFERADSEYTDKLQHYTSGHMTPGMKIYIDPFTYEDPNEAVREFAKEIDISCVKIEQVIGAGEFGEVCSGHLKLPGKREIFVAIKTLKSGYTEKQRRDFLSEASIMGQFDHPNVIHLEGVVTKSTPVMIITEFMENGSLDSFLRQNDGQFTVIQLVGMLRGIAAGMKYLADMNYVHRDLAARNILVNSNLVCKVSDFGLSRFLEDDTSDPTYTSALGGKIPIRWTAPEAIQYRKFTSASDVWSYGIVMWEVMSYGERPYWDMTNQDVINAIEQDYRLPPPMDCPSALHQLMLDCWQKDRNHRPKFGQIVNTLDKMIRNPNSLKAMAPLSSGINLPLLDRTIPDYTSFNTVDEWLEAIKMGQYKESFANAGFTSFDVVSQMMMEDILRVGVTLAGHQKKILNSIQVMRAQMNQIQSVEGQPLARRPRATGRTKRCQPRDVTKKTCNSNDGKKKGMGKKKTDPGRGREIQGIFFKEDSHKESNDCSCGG

[3] = target: Tyrosine-protein kinase Fgr ; FGR ; P09769 (Homo sapiens, UniProt P09769); settings: binder
[4] = target: Tyrosine-protein kinase Fyn ; FYN ; P06241 (Homo sapiens, UniProt P06241); settings: DDA-MS residual binding; binder
Tyrosine-protein kinase Fyn ; FYN ; P06241, sequence (P06241 whole entry): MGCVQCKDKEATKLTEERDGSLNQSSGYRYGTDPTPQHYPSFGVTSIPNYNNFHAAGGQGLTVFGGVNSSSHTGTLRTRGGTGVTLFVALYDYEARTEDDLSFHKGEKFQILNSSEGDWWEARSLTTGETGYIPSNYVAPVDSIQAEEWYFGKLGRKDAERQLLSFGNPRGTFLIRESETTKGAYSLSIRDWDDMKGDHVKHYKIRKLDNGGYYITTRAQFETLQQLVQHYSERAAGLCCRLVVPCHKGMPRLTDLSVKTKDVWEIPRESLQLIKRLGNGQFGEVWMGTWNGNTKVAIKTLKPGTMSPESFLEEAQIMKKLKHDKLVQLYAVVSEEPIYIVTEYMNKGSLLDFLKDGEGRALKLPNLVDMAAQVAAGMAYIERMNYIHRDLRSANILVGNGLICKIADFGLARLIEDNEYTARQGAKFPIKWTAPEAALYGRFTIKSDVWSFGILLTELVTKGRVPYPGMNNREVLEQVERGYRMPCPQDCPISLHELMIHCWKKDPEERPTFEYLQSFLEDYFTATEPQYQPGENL

Tyrosine-protein kinase Fgr ; FGR ; P09769, sequence (P09769 whole entry): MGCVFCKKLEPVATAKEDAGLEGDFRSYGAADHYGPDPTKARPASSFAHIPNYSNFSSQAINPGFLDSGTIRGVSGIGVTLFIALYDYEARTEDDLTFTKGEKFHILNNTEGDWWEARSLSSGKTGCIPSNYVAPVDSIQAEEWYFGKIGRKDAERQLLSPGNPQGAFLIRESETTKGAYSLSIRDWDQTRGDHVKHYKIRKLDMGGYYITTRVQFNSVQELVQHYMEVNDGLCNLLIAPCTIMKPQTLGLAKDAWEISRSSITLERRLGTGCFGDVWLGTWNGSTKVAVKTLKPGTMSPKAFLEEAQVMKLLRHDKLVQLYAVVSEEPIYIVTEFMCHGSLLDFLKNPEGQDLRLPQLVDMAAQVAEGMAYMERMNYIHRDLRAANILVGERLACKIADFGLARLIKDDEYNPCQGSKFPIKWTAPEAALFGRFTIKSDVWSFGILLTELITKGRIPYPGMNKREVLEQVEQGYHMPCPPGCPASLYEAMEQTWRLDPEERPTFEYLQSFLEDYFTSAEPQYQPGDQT

Compound: Cc1nc(Nc2ncc(C(=O)Nc3c(C)cccc3Cl)s2)cc(N2CCN(CCO)CC2)n1 [dasatinib]
- DDA-MS / % Intensity (30 µM/DMSO) [1]: 2.183%
- DDA-MS / % Intensity (30 µM/DMSO) [2]: 7.218%
- DDA-MS / % Intensity (30 µM/DMSO) [3]: 3.884%
- DDA-MS / % Intensity (30 µM/DMSO) [4]: 1.698%
